Results on two molecules are retold here after patent publication US10226452B2, “Benzoxazolone derivatives as acid ceramidase inhibitors, and their use as medicaments” (FONDAZIONE ISTITUTO ITALIANO DI TECNOLOGIA, priority 2014, dated 2019).

The target in experiment [1] is human (hAC) acid ceramidase (Homo sapiens (Human), UniProt Q13510). Kind of experiment: fluorescent-based in vitro assay on human acid ceramidase. Format: biochemical. As to conditions: hAC-enriched lysosomal lysate from HEK293 cells; fluorogenic probe 5 μM; pH 4.5. The source says: To evaluate the potency of the compounds towards acid ceramidase, a fluorescence-based in vitro assay previously described in literature (Bedia C et al., ChemBioChem, 2007, 8, 642-648) was implemented and optimized. This assay is based on a “fluorogenic probe” containing a coumarin group and a sphingoid base moiety (see figure below), which is not fluorescent in itself, but upon enzymatic cleavage by acid ceramidase followed by a chemical transformation liberates the fluorescent molecule umbelliferone (7-hydroxychromen-2-one). By quantifying the generation of umbelliferone using a fluorescence plate-reader, the level of enzymatic activity can be measured, whereby IC50 values of compounds that inhibit this activity can be generated.
Lysosomal lysate, enriched with acid ceramidase, was prepared from a cell line stably expressing human acid ceramidase. In the assay, the fluorogenic probe (or substrate) serves as a ceramide-analogue, which is recognized and hydrolyzed at the amide bond by acid ceramidase from the enriched lysate to yield the fatty acid and coumarinic aminodiol. By treating the solution with sodium periodate (NaIO4), the coumarinic aminodiol is subsequently oxidized into an aldehyde intermediate, which undergoes a β-elimination reaction to release the strongly fluorescent umbelliferone.
A lysosomal human acid ceramidase protein preparation was obtained from HEK293 cells stably expressing acid ceramidase suspended in 20 mM Tris HCl (pH 7.5) with 0.32 M sucrose. The cell solution was sonicated and centrifuged at 800×g for 15 min at 4° C. Supernatants were then centrifuged at 12,000×g for 30 min at 4° C. Pellets were re-suspended in PBS pH 7.4 and subjected to two freeze-thaw cycles at −80° C. The suspension was finally centrifuged at 105,000×g for 1 hour at 4° C. and protein concentration was measured in the supernatant with bicinchinonic-acid based protein assay. This human acid ceramidase-enriched preparation allowed us to further optimize the enzymatic assay and to use smaller amounts of lysate (2 μg/well) and substrate (5 μM).
The assay was performed in Optiplate 96-wells black plates, with each reaction well containing a mixture of 25 mM sodium acetate buffer pH 4.5 and a fixed amount of protein (2 μg) in a volume of 85 μL. After 30 mins of pre-incubation with test compounds (diluted 20× from DMSO stock solutions at different concentrations), the fluorogenic probe was added (diluted 20× from EtOH stock solution, final concentration 5 μM). After incubation for 3 hours at 37° C., the reactions were stopped with 50 μL of methanol and 100 μL of a 2.5 mg/mL NalO4 fresh solution in 100 mM Glycine/NaOH pH 10.6. The plate was incubated at 37° C. for 2 hours in the dark and fluorescence intensities were measured at excitation/emission wavelengths of 360/446 nm. Negative control samples consisted of the same incubation mixture in the absence of protein extracts. The IC50 values or percent of inhibition, at the indicated concentration, of selected compounds described in the invention are reported in Table 2.

Experiment [2] addresses AC (Mus musculus (Mouse), UniProt Q9WV54). In words: AC activity ex vivo in mouse tissues after systemic administration. Particulars: mice. The protocol: Specifically, it is evidences the effects of compound of Example 7 or vehicle (15% polyethylene glycol, 15% Tween80, 70% saline) on AC activity in mouse lungs. AC activity measured ex vivo 30 minutes or 3 hours after intraperitoneal injection of compound of Example 7 (10 mg-kg^−1). Results are expressed as mean±s.e.m. (n=6). ***p<0.001 vs vehicle, one-way ANOVA followed by Dunnet.
Specifically, FIG. 7 illustrates the effects of compound of Example 25 or vehicle (15% polyethylene glycol, 15% Tween80, 70% saline) on AC activity in mouse lungs (oral administration, A) or cerebral cortex (intraperitoneal administration, B) and on ceramide levels (C and D). Results are expressed as mean±s.e.m. (n=6). *p<0.05, **p<0.01, ***p<0.001 vs vehicle, one-way ANOVA followed by Dunnet.
hAC protein preparation (10 μg) was preincubated with inhibitors (final DMSO concentration 1%) in assay buffer (100 mM sodium phosphate, 0.1% Nonidet P-40, 150 mM NaCl, 3 mM DTT, 100 mM sodium citrate, pH 4.5) for 30 min at 37° C. Reactions were started by the addition of 50 μM N-lauroyl ceramide (Nu-Chek Prep, Elysian, Minn.) and carried on for 30 min at 37° C. Reactions were stopped by addition of a mixture of chloroform/methanol (2:1, vol/vol) containing 1 nmol 11-lauroleic acid (NuChek Prep). The organic phases were collected, dried under nitrogen and analyzed by UPLC/MS (Acquity, Waters). In the negative-ion mode monitoring the reaction product (lauric acid, m/z=199) using 11-lauroleic acid as internal standard.

Experiment [3] has as its target COX1 (h) (Homo sapiens (Human), UniProt P23219). Kind of experiment: Cerep enzyme inhibition screen: COX1. The class given is biochemical. Particulars: mean of two determinations, read-out: Inhibitory activity (% Inh. at 10 μM), mean. The source says: (§1) Compound of Example 25 falling in both Formula (I) and (Ia) was selected to be tested for off-target effects on a set of enzymes that include proteases (aspartic, cysteine, and serine), cyclooxygenases as well as lipoxygenases and group IV phospholipase (sPLA2) (Table 3). [table]

Experiment [4] addresses caspase-3 (h) (Homo sapiens (Human), UniProt P42574). In words: Cerep enzyme inhibition screen: caspase-3. Format: biochemical. Particulars: mean of two determinations, read-out: Inhibitory activity (% Inh. at 10 μM), mean.
Source text: as §1

The target of experiment [5] is sPLA2 (h) (type V) (Homo sapiens (Human), UniProt P39877). In words: Cerep enzyme inhibition screen: sPLA2. Format: biochemical. Particulars: mean of two determinations, read-out: Inhibitory activity (% Inh. at 10 μM), mean.
Source text: as §1

Sequence of AC (Q9WV54 19-141): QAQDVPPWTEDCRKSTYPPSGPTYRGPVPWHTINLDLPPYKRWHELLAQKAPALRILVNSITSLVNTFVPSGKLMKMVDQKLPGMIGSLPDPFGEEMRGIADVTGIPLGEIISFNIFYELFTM
Sequence of AC (Q9WV54 142-394): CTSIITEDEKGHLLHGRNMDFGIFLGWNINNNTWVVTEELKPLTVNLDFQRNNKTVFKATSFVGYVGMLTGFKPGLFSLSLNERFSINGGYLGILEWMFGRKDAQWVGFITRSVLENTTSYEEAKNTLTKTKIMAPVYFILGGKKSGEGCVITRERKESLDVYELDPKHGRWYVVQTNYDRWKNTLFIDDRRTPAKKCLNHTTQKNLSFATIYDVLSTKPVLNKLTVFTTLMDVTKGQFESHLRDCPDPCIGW
Sequence of caspase-3 (h) (P42574 29-175): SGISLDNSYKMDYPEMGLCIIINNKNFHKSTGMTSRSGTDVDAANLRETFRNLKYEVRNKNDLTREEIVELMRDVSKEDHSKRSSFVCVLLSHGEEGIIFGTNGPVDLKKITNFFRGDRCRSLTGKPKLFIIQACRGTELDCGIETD
Sequence of caspase-3 (h) (P42574 176-277): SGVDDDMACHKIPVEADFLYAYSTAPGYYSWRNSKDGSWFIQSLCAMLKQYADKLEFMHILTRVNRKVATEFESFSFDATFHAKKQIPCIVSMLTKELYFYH
Sequence of COX1 (h) (P23219 24-599): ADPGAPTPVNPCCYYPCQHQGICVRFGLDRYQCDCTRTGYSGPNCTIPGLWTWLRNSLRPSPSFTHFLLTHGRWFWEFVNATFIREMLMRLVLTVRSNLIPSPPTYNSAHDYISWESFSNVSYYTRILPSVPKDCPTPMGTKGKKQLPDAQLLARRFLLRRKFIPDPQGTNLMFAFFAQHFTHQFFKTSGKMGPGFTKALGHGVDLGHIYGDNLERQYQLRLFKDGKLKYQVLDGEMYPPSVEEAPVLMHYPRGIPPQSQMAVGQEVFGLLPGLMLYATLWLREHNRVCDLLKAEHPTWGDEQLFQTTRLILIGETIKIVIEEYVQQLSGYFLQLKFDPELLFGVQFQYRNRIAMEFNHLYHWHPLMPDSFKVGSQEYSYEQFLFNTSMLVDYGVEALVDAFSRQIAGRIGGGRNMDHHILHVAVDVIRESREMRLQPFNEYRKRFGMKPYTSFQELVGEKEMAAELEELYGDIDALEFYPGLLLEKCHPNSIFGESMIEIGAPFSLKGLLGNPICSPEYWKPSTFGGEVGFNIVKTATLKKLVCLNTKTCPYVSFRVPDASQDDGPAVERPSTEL
Sequence of human (hAC) acid ceramidase (Q13510 22-142): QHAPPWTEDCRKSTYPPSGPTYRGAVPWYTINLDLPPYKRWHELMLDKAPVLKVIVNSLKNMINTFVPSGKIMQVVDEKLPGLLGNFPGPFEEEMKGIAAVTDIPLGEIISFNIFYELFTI
Sequence of human (hAC) acid ceramidase (Q13510 143-395): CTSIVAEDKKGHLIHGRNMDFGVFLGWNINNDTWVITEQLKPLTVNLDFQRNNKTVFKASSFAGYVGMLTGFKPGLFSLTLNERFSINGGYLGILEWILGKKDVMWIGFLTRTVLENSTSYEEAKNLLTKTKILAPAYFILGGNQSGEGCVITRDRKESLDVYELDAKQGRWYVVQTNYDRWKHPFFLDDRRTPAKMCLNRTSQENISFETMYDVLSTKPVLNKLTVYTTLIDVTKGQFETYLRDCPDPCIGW
Sequence of sPLA2 (h) (type V) (P39877 21-138): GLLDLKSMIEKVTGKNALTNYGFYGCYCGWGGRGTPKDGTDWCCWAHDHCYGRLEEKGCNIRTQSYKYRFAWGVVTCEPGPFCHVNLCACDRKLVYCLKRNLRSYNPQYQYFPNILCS

`O=C(NCCCCc1ccccc1)n1c(=O)oc2cc(Br)ccc21` [Example 7, 6-Bromo-2-oxo-N-(4-phenylbutyl)-1,3-benzoxazole-3-carboxamide] yielded an IC50 in experiment [1] of 33 ± 9 nM. In addition, in experiment [2] (10 mg-kg^−1 intraperitoneal, after 30 minutes or 3 hours), the “AC activity in lungs” value is “time-dependent inhibition of AC activity in lungs”.
Consider `O=C(NCCCCc1ccccc1)n1c(=O)oc2cc(-c3ccc(F)cc3)ccc21` [Example 25, 6-(4-Fluorophenyl)-2-oxo-N-(4-phenylbutyl)-1,3-benzoxazole-3-carboxamide], for which the inhibition at 10 µM in experiment [3] was -6.1%; in experiment [4] it was 1.9%; in experiment [5] it was 1.1%. For the same molecule, in experiment [2] (3 or 10 mg-kg^−1, intraperitoneal or oral (FIG. 7A oral)), the “AC activity in lungs” value is “time and dose-dependent inhibition of AC activity”. Also, the “AC activity in brain cortex” value in experiment [2] (3 or 10 mg-kg^−1, intraperitoneal or oral (FIG. 7B intraperitoneal)) was “time and dose-dependent inhibition of AC activity”.
